Measurements as given in US8034371B2, “Intranasal compositions” (Archimedes Development Limited, priority 2003, dated 2011).
Structures can show the parent of a compound that is named as a salt.

How the values were obtained:
[1] = Pharmacokinetic performance of intranasal and IV zolpidem formulations in sheep (Example 6); settings: for Tmax: intranasal, zolpidem dose 20 mg, mean n = 5
Method: A group of five female sheep was used, each weighing around 45 kg. The formulations were administered to a randomised cross-over design. […] This dose was provided by transferring 3.5 ml of the test formulation into a glass bottle, attaching a Valois VP7 spray pump and actuator to the bottle, priming the pump and then administering two 0.1 ml sprays into each nostril.
Blood samples were collected over a 360 minute period following dosing and plasma separated. Plasma samples were assayed by an HPLC method for zolpidem content. Pharmacokinetic parameters were calculated from the plasma data.

[2] = Saturated solubility of zolpidem tartrate in SBE-CD solutions with and without chitosan, UV 296 nm (Example 2); format: physicochemical; settings: aqueous SBE-CD solution, 18 °C, aqueous with cosolvent or surfactant or cyclodextrin, thermodynamic from solid
Method: A stock solution was prepared containing 400 mg/ml SBE-CD in water and then dilutions made to 100, 150, 200, 250 and 300 mg/ml. Into 2 ml portions of the stock and diluted SBE-CD solutions was dissolved 10 mg of chitosan glutamate (Protasan UPG213, NovaMatrix, Drammen, Norway). To each of these samples of SBE-CD/chitosan solution and to each of six chitosan-free 2 ml samples of SBE-CD solutions were added 140 mg samples of zolpidem tartrate. The samples were left to stir overnight at room temperature (18° C.). If during this time all the drug dissolved, further amounts were added until a suspension was formed (i.e. saturated drug solution formed). After further stirring for up to 72 hours, suspensions were filtered (0.45 μm filter, Gelman, Portsmouth, UK) to recover saturated zolpidem tartrate solutions. The filtrate samples were diluted in water and the UV absorbance at 296 nm measured. By reference to a calibration curve of UV absorbance (296 nm) vs. zolpidem concentration, the concentration of zolpidem in the samples was calculated. Solubility data are presented in Table 2 and presented graphically in FIG. 1.

[3] = Semi-quantitative solubility of zolpidem tartrate in different cyclodextrin solutions (Example 1); format: physicochemical; settings: aqueous cyclodextrin solution, aqueous with cosolvent or surfactant or cyclodextrin, thermodynamic from solid, room temperature
Method: A semi-quantitative comparison was made of the ability of different cyclodextrins to enhance the aqueous solubility of zolpidem tartrate.
Aqueous solutions were prepared containing 200, 300 and 400 mg/ml of three types of cyclodextrin. These were hydroxypropyl-β-cyclodextrin (HP-CD) (Cavamax® W7 HP Pharma, Wacker, Germany), methylated-β-cyclodextrin (M-CD) (Cavamax® W7 M Pharma, Wacker) and sulfobutylether-β-cyclodextrin (SBE-CD) (Captisol®, CyDex, USA). 25 mg samples of zolpidem tartrate (ZMC, Zheijang, Hangzhou, China) were added to a 0.5 ml portion of each cyclodextrin solution. The mixtures (containing 50 mg/ml drug) were stirred overnight at room temperature. If drug dissolved then more was added. If undissolved drug remained then an additional 0.5 ml of cyclodextrin solution was added and stirring continued. From this experiment an estimate could be made of zolpidem tartrate solubility in the different cyclodextrin solutions.

Cc1ccc(-c2nc3ccc(C)cn3c2CC(=O)N(C)C)cc1 [zolpidem, N,N,6-trimethyl-2-(4-methylphenyl)-imidazo[1,2-a]pyridine-3-acetamide]
Tmax ([1]; female, plasma, inhaled or intranasal, 20 mg, Tmax): 13 min
Effect of inclusion of chitosan on bioavailability ([1]; intranasal solution with vs without chitosan): significantly enhanced
Tmax [1]: 16 min

Cc1ccc(-c2nc3ccc(C)cn3c2CC(=O)N(C)C)cc1 [zolpidem tartrate]
solubility ([2]; SBE-CD 100 mg/ml, 5 mg/ml chitosan glutamate, read-out: Zolpidem tartrate solubility in presence of 5 mg/ml chitosan glutamate): 46.2 mg/mL
solubility ([2]; SBE-CD 100 mg/ml, no chitosan, read-out: Zolpidem tartrate solubility): 41.9 mg/mL
solubility ([2]; SBE-CD 150 mg/ml, 5 mg/ml chitosan glutamate, read-out: Zolpidem tartrate solubility in presence of 5 mg/ml chitosan glutamate): 51.9 mg/mL
solubility ([2]; SBE-CD 150 mg/ml, no chitosan, read-out: Zolpidem tartrate solubility): 46.5 mg/mL
solubility ([2]; SBE-CD 200 mg/ml, 5 mg/ml chitosan glutamate, read-out: Zolpidem tartrate solubility in presence of 5 mg/ml chitosan glutamate): 55.6 mg/mL
solubility ([2]; SBE-CD 200 mg/ml, no chitosan, read-out: Zolpidem tartrate solubility): 57.3 mg/mL
solubility ([2]; SBE-CD 250 mg/ml, 5 mg/ml chitosan glutamate, read-out: Zolpidem tartrate solubility in presence of 5 mg/ml chitosan glutamate): 55.9 mg/mL
solubility ([2]; SBE-CD 250 mg/ml, no chitosan, read-out: Zolpidem tartrate solubility): 56.1 mg/mL
solubility ([2]; SBE-CD 300 mg/ml, 5 mg/ml chitosan glutamate, read-out: Zolpidem tartrate solubility in presence of 5 mg/ml chitosan glutamate): 63.7 mg/mL
solubility ([2]; SBE-CD 300 mg/ml, no chitosan, read-out: Zolpidem tartrate solubility): 57.5 mg/mL
solubility ([2]; SBE-CD 400 mg/ml, 5 mg/ml chitosan glutamate, read-out: Zolpidem tartrate solubility in presence of 5 mg/ml chitosan glutamate): 68.1 mg/mL
solubility ([2]; SBE-CD 400 mg/ml, no chitosan, read-out: Zolpidem tartrate solubility): 69 mg/mL
solubility ([3]; HP-CD 200 mg/ml): 25 to 31 mg/mL
solubility ([3]; HP-CD 300 mg/ml): 31 to 36 mg/mL
solubility ([3]; HP-CD 400 mg/ml): 36 to 50 mg/mL
solubility ([3]; M-CD 200 mg/ml): 25 to 31 mg/mL
solubility ([3]; M-CD 300 mg/ml): 31 to 36 mg/mL
solubility ([3]; M-CD 400 mg/ml): 31 to 36 mg/mL
solubility ([3]; SBE-CD 200 mg/ml): > 50 mg/mL
solubility ([3]; SBE-CD 300 mg/ml): 50 to 56 mg/mL
solubility ([3]; SBE-CD 400 mg/ml): ~60 mg/mL
